Consider 37 compounds from ChEMBL document CHEMBL1128002, “Selective inhibitors of protein kinase C in a model of graft-vs-host disease” (Bioorg Med Chem Lett, 1994).

Each structure is given as a SMILES string.

Tested on in one assay: not listed separately
The experiment in a line: (§1) Inhibitory activity against protein kinase C from Jurkat cells. Format: cell-based.
Settings: not given
`O=C1ON=C(c2cccs2)/C1=C/c1ccc(Br)cc1`: it took 84 µM to reach half-maximal inhibition (IC50).
Take `O=C1ON=C(c2ccccc2)/C1=C/c1ccco1`: the concentration for half-maximal inhibition (IC50) (commonly the point on the concentration scale where inhibition reaches its midpoint) came to 0.9 µM.
On the same count and under the same terms, the value for `O=C1ON=C(c2cccs2)/C1=C/c1cccc(Cl)c1` was 23 µM; that for `COc1ccccc1C1=NOC(=O)/C1=C\c1cccs1` was 1.2 µM.
`O=C1ON=C(c2cccs2)C1=CC=Cc1ccccc1` registered a half-maximal inhibitory concentration (IC50) of 1 µM.
Same read-out and setting: the value for `Cc1cc(/C=C2\C(=O)ON=C2c2cccs2)cc(C)c1O` was 2.5 µM; that for `O=C1ON=C(c2cccs2)/C1=C/c1cccc(O)c1` was 9.9 µM.
Same read-out and setting: the value for `O=C(O)COc1ccc(/C=C2\C(=O)ON=C2c2cccs2)cc1` was 8.2 µM.
Same read-out and setting: under `O=C1ON=C(c2cccs2)/C1=C/c1ccsc1` stands 2.9 µM; under `CN(C)c1ccc(/C=C2\C(=O)ON=C2c2cccs2)cc1`, 2.1 µM; under `O=C1ON=C(c2cccs2)/C1=C/c1cccs1`, 1 µM.
On to `COc1cc(/C=C2\C(=O)ON=C2c2cccs2)cc(OC)c1O`, for which the IC50 is 11 µM.
Same read-out and setting: under `CC(=O)Oc1ccc(/C=C2\C(=O)ON=C2c2cccs2)cc1` stands 11 µM; under `O=C1ON=C(c2ccccc2)/C1=C/c1ccccc1`, 14 µM; under `O=C1ON=C(c2cccs2)/C1=C/c1ccc(O)cc1`, 3.5 µM.
`COc1ccc(/C=C2\C(=O)ON=C2c2cccs2)c(OC)c1`: the IC50 was > 100 µM.
On the same count and under the same terms, the value for `Cc1cc(O)cc(C)c1/C=C1\C(=O)ON=C1c1cccs1` was 5.3 µM; that for `O=C1ON=C(c2ccccc2O)/C1=C/c1cccs1` was 25 µM; that for `O=C1ON=C(c2cccs2)/C1=C/c1ccc(F)cc1` was 8.8 µM.
Same read-out and setting: the value for `CC(C)(C)c1cc(/C=C2\C(=O)ON=C2c2cccs2)cc(C(C)(C)C)c1O` was 35 µM; that for `O=C1ON=C(c2cccs2)/C1=C/c1ccc(O)c(O)c1` was 3.5 µM; that for `O=C1ON=C(c2cccs2)/C1=C/c1ccccc1O` was 5.5 µM.
Still for that read-out and setting: under `COc1cccc(/C=C2\C(=O)ON=C2c2cccs2)c1` stands 22 µM; under `O=C1ON=C(c2cccs2)/C1=C/c1ccco1`, 1.4 µM.
`O=C1ON=C(c2cccs2)/C1=C/c1ccoc1` had a concentration for half-maximal inhibition (IC50) of 1.7 µM.
In turn, `O=C1ON=C(c2cccs2)/C1=C/c1ccc(Cl)cc1` gave a concentration for half-maximal inhibition (IC50) of 11 µM.
In the case of `O=C1ON=C(c2cccs2)/C1=C/c1ccccc1`, the concentration for half-maximal inhibition (IC50) turned out to be 15 µM.
`COc1ccc(C2=NOC(=O)/C2=C\c2cccs2)cc1`: inhibition was half-maximal at 0.7 µM (IC50).
In the case of `COc1ccc(/C=C2\C(=O)ON=C2c2cccs2)cc1`, the midpoint of inhibition, the IC50, lay at 1.2 µM.
`COc1cc(/C=C2\C(=O)ON=C2c2cccs2)ccc1OC(C)=O` displayed an IC50 of 11 µM.
Same read-out and setting: under `COc1ccc(OC)c(C2=NOC(=O)/C2=C\c2cccs2)c1` stands 1.9 µM.

Tested on in the next assay: not listed separately
The assay is described as §1. Conditions: dose or concentration not given here. The class given is cell-based. On the set-up: concentration or dose not given beside the values.
On to `O=C1ON=C(c2cccs2)/C1=C/c1ccc(Br)cc1`, for which the inhibition – broadly, the share of the control response that was lost under treatment – was 100%.
With `O=C1ON=C(c2ccccc2)/C1=C/c1ccco1`, the inhibition was 84%.
Still for that read-out and setting: under `O=C1ON=C(c2cccs2)/C1=C/c1cccc(Cl)c1` stands 24%; under `COc1ccccc1C1=NOC(=O)/C1=C\c1cccs1`, 100%.
In turn, `Cn1cc(/C=C2\C(=O)ON=C2c2cccs2)c2ccccc21` displayed an inhibition of 21%.
Same read-out and setting: the value for `Oc1onc(-c2cccs2)c1/C=C1\C=CC=N1` was 8.9%; that for `O=C1ON=C(c2cccs2)/C1=C/c1ccsc1` was 100%; that for `CN(C)c1ccc(/C=C2\C(=O)ON=C2c2cccs2)cc1` was 88%.
Same read-out and setting: under `CC1=CC(C)=N/C1=C/c1c(-c2cccs2)noc1O` stands 19%.
Still for that read-out and setting: under `O=C1ON=C(c2cccs2)/C1=C/c1cccs1` stands 100%; under `CC(=O)Oc1ccc(/C=C2\C(=O)ON=C2c2cccs2)cc1`, 81%; under `O=C1ON=C(c2ccc([N+](=O)[O-])cc2)/C1=C/c1cccs1`, 0%.
`O=C1ON=C(c2cccs2)/C1=C/c1ccc(O)cc1` displayed an inhibition of 93%.
Still for that read-out and setting: under `COc1ccc(/C=C2\C(=O)ON=C2c2cccs2)c(OC)c1` stands 35%; under `Cc1cc(O)cc(C)c1/C=C1\C(=O)ON=C1c1cccs1`, 78%; under `O=C1ON=C(c2cccs2)/C1=C/c1ccc(F)cc1`, 98%.
Same read-out and setting: under `COc1cccc(/C=C2\C(=O)ON=C2c2cccs2)c1` stands 65%; under `O=C1ON=C(c2cccs2)/C1=C/c1ccco1`, 100%; under `O=C1ON=C(c2cccs2)/C1=C/c1ccoc1`, 100%.
For `O=C1ON=C(c2cccs2)/C1=C/c1ccc(Cl)cc1`, the inhibition turned out to be 82%.
Compound `Oc1onc(-c2cccs2)c1/C=C1/C=Nc2ccccc21` registered an inhibition of 48%.
The same measure, in the same setting: the value for `O=C1ON=C(c2cccs2)/C1=C/c1ccccc1` was 81%.
Same read-out and setting: the value for `COc1ccc(C2=NOC(=O)/C2=C\c2cccs2)cc1` was 100%; that for `COc1ccc(/C=C2\C(=O)ON=C2c2cccs2)cc1` was 89%; that for `COc1cc(/C=C2\C(=O)ON=C2c2cccs2)ccc1OC(C)=O` was 82%.
As to `COc1ccc(OC)c(C2=NOC(=O)/C2=C\c2cccs2)c1`, the inhibition was 100%.
The same measure, in the same setting: under `Nc1ccc(C2=NOC(=O)/C2=C\c2cccs2)cc1` stands 0%.

The species named for a further assay is Rattus norvegicus. The experiment in a line: (§2) Inhibitory activity against graft vs host disease in rat. Format: functional, organism-based.
Settings: not given
The compound `O=C1ON=C(c2ccccc2)/C1=C/c1ccco1` gave a 50% inhibitory concentration (IC50) of 2.9 µM.
The compound `COc1ccccc1C1=NOC(=O)/C1=C\c1cccs1` showed an IC50 of 7.1 µM.
Still for that read-out and setting: under `O=C1ON=C(c2cccs2)C1=CC=Cc1ccccc1` stands 3 µM.
Same read-out and setting: under `Cc1cc(/C=C2\C(=O)ON=C2c2cccs2)cc(C)c1O` stands 2.6 µM; under `O=C(O)COc1ccc(/C=C2\C(=O)ON=C2c2cccs2)cc1`, 100 µM.
Still for that read-out and setting: under `O=C1ON=C(c2cccs2)/C1=C/c1ccsc1` stands 3 µM; under `CN(C)c1ccc(/C=C2\C(=O)ON=C2c2cccs2)cc1`, 4.2 µM.
`O=C1ON=C(c2cccs2)/C1=C/c1cccs1` had an IC50 of 3.7 µM.
The compound `CC(=O)Oc1ccc(/C=C2\C(=O)ON=C2c2cccs2)cc1` had a 50% inhibitory concentration (IC50) of 4.5 µM.
The same measure, in the same setting: under `O=C1ON=C(c2cccs2)/C1=C/c1ccc(O)cc1` stands 4.2 µM.
On the same count and under the same terms, the value for `Cc1cc(O)cc(C)c1/C=C1\C(=O)ON=C1c1cccs1` was 1.6 µM.
Still for that read-out and setting: under `O=C1ON=C(c2cccs2)/C1=C/c1ccc(F)cc1` stands 4.8 µM; under `O=C1ON=C(c2cccs2)/C1=C/c1ccc(O)c(O)c1`, 3.4 µM; under `O=C1ON=C(c2cccs2)/C1=C/c1ccccc1O`, 5.7 µM.
`O=C1ON=C(c2cccs2)/C1=C/c1ccco1` gave an IC50 of 5.8 µM.
Consider `O=C1ON=C(c2cccs2)/C1=C/c1ccoc1`, for which the midpoint of inhibition, the IC50, lay at 3.6 µM.
Same read-out and setting: the value for `O=C1ON=C(c2cccs2)/C1=C/c1ccc(Cl)cc1` was 6.2 µM; that for `O=C1ON=C(c2cccs2)/C1=C/c1ccccc1` was 4.4 µM; that for `COc1ccc(C2=NOC(=O)/C2=C\c2cccs2)cc1` was 11 µM.
In the case of `COc1ccc(/C=C2\C(=O)ON=C2c2cccs2)cc1`, 2.5 µM corresponded to half-maximal inhibition (IC50).
The same measure, in the same setting: the value for `COc1ccc(OC)c(C2=NOC(=O)/C2=C\c2cccs2)c1` was 7.9 µM.

Another assay is filed under the species Rattus norvegicus. Described as §2. The class given is functional.
Settings: not given
As for `O=C1ON=C(c2cccs2)/C1=C/c1ccc(Br)cc1`, the Inhibition (as a rule, the relative decrease from the control value, in per cent) was 91%.
For the compound `O=C1ON=C(c2ccccc2)/C1=C/c1ccco1`, the Inhibition came out at 89%.
Still for that read-out and setting: under `COc1ccccc1C1=NOC(=O)/C1=C\c1cccs1` stands 66%; under `O=C1ON=C(c2cccs2)C1=CC=Cc1ccccc1`, 93%; under `O=C1ON=C(c2cccs2)/C1=C/c1cccc(O)c1`, 58%.
Turning to `O=C(O)COc1ccc(/C=C2\C(=O)ON=C2c2cccs2)cc1`, the Inhibition is recorded as -7%.
The same measure, in the same setting: the value for `O=C1ON=C(c2cccs2)/C1=C/c1ccsc1` was 95%; that for `CN(C)c1ccc(/C=C2\C(=O)ON=C2c2cccs2)cc1` was 89%; that for `O=C1ON=C(c2cccs2)/C1=C/c1cccs1` was 97%.
Still for that read-out and setting: under `COc1cc(/C=C2\C(=O)ON=C2c2cccs2)cc(OC)c1O` stands 72%; under `CC(=O)Oc1ccc(/C=C2\C(=O)ON=C2c2cccs2)cc1`, 65%.
For the compound `O=C1ON=C(c2cccs2)/C1=C/c1ccc(O)cc1`, the Inhibition was found to be 87%.
The same measure, in the same setting: the value for `Cc1cc(O)cc(C)c1/C=C1\C(=O)ON=C1c1cccs1` was 88%; that for `O=C1ON=C(c2ccccc2O)/C1=C/c1cccs1` was 20%; that for `O=C1ON=C(c2cccs2)/C1=C/c1ccc(F)cc1` was 92%.
On the same count and under the same terms, the value for `O=C1ON=C(c2cccs2)/C1=C/c1ccc(O)c(O)c1` was 87%.
On to `O=C1ON=C(c2cccs2)/C1=C/c1ccccc1O`, for which the Inhibition is 87%.
Same read-out and setting: the value for `COc1cccc(/C=C2\C(=O)ON=C2c2cccs2)c1` was 66%.
On the same count and under the same terms, under `O=C1ON=C(c2cccs2)/C1=C/c1ccco1` stands 88%; under `O=C1ON=C(c2cccs2)/C1=C/c1ccoc1`, 94%.
On the same count and under the same terms, under `O=C1ON=C(c2cccs2)/C1=C/c1ccc(Cl)cc1` stands 71%.
For `O=C1ON=C(c2cccs2)/C1=C/c1ccccc1`, the Inhibition came out at 88%.
With `COc1ccc(C2=NOC(=O)/C2=C\c2cccs2)cc1`, the Inhibition amounted to 44%.
Same read-out and setting: under `COc1ccc(/C=C2\C(=O)ON=C2c2cccs2)cc1` stands 96%.
For the compound `COc1cc(/C=C2\C(=O)ON=C2c2cccs2)ccc1OC(C)=O`, the Inhibition was determined as 43%.
The same measure, in the same setting: under `COc1ccc(OC)c(C2=NOC(=O)/C2=C\c2cccs2)c1` stands 59%.
